Reference: US7468274B2, “Single cell analysis of HIV replication capacity and drug resistance” (priority 2004, dated 2008)
Where “and” joins values, the source holds several entries; their conditions need not be identical. Identical values can stand only once. Entries after “also recorded” stand apart in the source; their conditions may differ. Like-named read-outs stand apart in the source and are kept apart here.

Experiments:
[1] = system: pseudotyped reporter viruses carrying the NL4-3 gag-pol sequence (wild type); format: cell-based, HIV-1
[2] = system: Pt2019-1-1 patient-derived drug-resistant HIV-1 isolate; format: cell-based
[3] = system: Pt2019-1-2 patient-derived drug-resistant HIV-1 isolate; format: cell-based
[4] = in vivo; cited from earlier work

SMILES: Nc1ccn([C@@H]2CS[C@H](CO)O2)c(=O)n1 [3TC, lamivudine]
- Drug Resistance Index [1]: 0.002
- Replication Index (replication capacity index x drug resistance index) [1]: 0.002
- Drug Resistance Index [2]: 1
- Replication Index ([2]; Pt2019-1-1, concn 12.5 (head prints p.M)): 0.42
- Drug Resistance Index ([2]; Pt2019-1-1, concn 12.5 (head prints p.M; text 12.5 μM)): 0.8
- Replication Index ([3]; concn 12.5 (head prints p.M)): 0.00053
- Drug Resistance Index ([3]; concn 12.5 (head prints p.M; text 12.5 μM)): 0.001

SMILES: Cc1cn([C@H]2C[C@H](N=[N+]=[N-])[C@@H](CO)O2)c(=O)[nH]c1=O [AZT, zidovudine]
- % GFP-positive target cells [1]: 7.61% and 6.70% and 7.59% and 6.71%
- Drug resistance index (replication with drug / without drug) [1]: 0.356
- Mean % GFP-positive target cells [1]: 7.15%

SMILES: O=C1Nc2ccc(Cl)cc2[C@@](C#CC2CC2)(C(F)(F)F)O1 [EFV, efavirenz]
- Cmin/IC50 ratio (published Cmin to IC50 measured in this system) [1]: > 1,000 fold

SMILES: Cc1cn([C@H]2C=C[C@@H](CO)O2)c(=O)[nH]c1=O [d4T, stavudine]
- % GFP-positive target cells [1]: 6.83% and 7.04% and 5.74%
- Cmax relative to IC50 measured in this system [1]: close to or below; also recorded: below
- Drug resistance index (replication with drug / without drug) [1]: 0.325
- Mean % GFP-positive target cells [1]: 6.54%

SMILES: O=c1[nH]cnc2c1ncn2[C@H]1CC[C@@H](CO)O1 [ddI, didanosine]
- Cmax relative to IC50 measured in this system [1]: close to or below
- Cmax relative to IC90 measured in this system [1]: below
- Cmax [4]: 6.78 µM
